Experimental data published in patent US12194080B2, “Methods for identification, assessment, prevention, and treatment of metabolic disorders using PM20D1 and N-lipidated amino acids” (Dana-Farber Cancer Institute, Inc., priority 2015, dated 2025).

Assays:
C2C12 cells = assay: Cellular oxygen consumption rate (uncoupled respiration), C2C12 cells; type: cell-based, mouse; details: 50 μM, after oligomycin 1 μM
Procedure: (§1) C2C12, U2O5, and 293A cells were cultured in DMEM with 10% FBS and pen/strep. Primary inguinal (iWAT) and brown (BAT) adipocytes were obtained as follows. The stromal-vascular fraction of inguinal (iWAT) pad from 4-12 week old male mice was dissected, minced, and digested for 45 min. at 37° C. in PBS containing 10 mM CaCl2, 2.4 U/ml dispase II (Roche), and 1.5 U/ml collagenase D (Roche). The stromal-vascular fraction of brown fat (BAT) pads from newborn (P1-P14) pups was dissected, minced, and digested for 45 min at 37° C. in PBS containing 1.3 mM CaCl2, 120 mM NaCl, 5 mM KCl, 5 mM glucose, 100 mM HEPES, 4% BSA, and 1.5 mg/ml collagenase B (Roche). Digested tissue was diluted with adipocyte culture media (DMEM/F-12, GlutaMAX™ supplement, Life Technologies, with 10% FBS and pen/strep) and centrifuged (600×g for 10 min.). The pellet was resuspended in 10 ml adipocyte culture media, strained through a 40 μm filter, and plated. Differentiation was induced by application of an adipogenic cocktail containing 5 μg/ml insulin (Sigma), 5 μM dexamethasone (Sigma), 250 μM isobutylmethylxanthine (Sigma), and 1 μM rosiglitazone (Cayman) for 2 days. Two days after induction, cells were maintained in adipocyte culture media containing 5 μg/ml insulin and 1 μM rosiglitazone.
(§2) Cellular oxygen consumption rates were determined using an XF24 Extracellular Flux Analyzer (Seahorse Biosciences). Oligomycin was purchased from EMD Millipore, and FCCP and rotenone were purchased from Sigma. C2C12 or U2OS cells were seeded at 30,000 or 50,000 cells/well, respectively in an XF24 cell culture microplate (V7-PS, Seahorse Bioscience) and analyzed the following day. Primary iWAT or BAT adipocytes were seeded at 15,000 cells/well, differentiation was induced the following day as described, and the cells were analyzed on day 5. On the day of analysis, the cells were washed once with Seahorse respiration buffer (8.3 g/1 DMEM, 1.8 g/l NaCl, 1 mM pyruvate, 20 mM glucose, pen/strep), placed in 0.5 ml Seahorse respiration buffer, and incubated in a CO2-free incubator for 1 hr. Port injection solutions were prepared as follows (final concentrations in assay in parentheses): 10 μM oligomycin (1 μM final), […] amino acid (50 μM final), 2 μM FCCP (0.2 μM final), and 30 μM rotenone (3 μM final). The Seahorse program was run as follows: basal measurement, 3 cycles; inject port A (oligomycin), 3 cycles; inject port B (compounds), 8 cycles; inject port C (FCCP), 3 cycles; inject port D (rotenone), 3 cycles. Each cycle consisted of mix 4 min, wait 0 min, and measure 2 min. For data expressed as a percentage of oligomycin-treated basal, the respiration at cycle 6 was normalized to 100%, and the maximum respiration at any time point between cycles 7 and 15 inclusive was used.

[1] = tested on: Diet induced obese (DIO) mice; assay: Chronic daily i.p. administration of N-acyl amino acids to DIO mice (body weight, food intake, body composition, GTT); type: in vivo, mouse; details: for body weight lost: after 8 days treatment, mean±SEM
Procedure: (§3) Animal experiments were performed according to procedures approved by the Beth Israel Deaconess Medical Center IACUC. Mice were maintained in 12 h light-dark cycles at 22° C. and fed a standard irradiated rodent chow diet. All experiments on wild-type mice were performed with male C57BL/6 mice purchased from Jackson Laboratories, except for the AAV experiments, which were performed with male C57BL/6 mice from Charles River. UCP1-KO (stock #017476) and 16-20 week DIO mice (stock #380050) were obtained from Jackson Laboratories. For AAV injection experiments, mice were gently warmed using a 250 W clear infrared heat lamp, immobilized, and injected via tail vein with 10^10 virus/mouse (diluted in saline) in a total volume of 100 μl/mouse. Where indicated, mice were placed on high-fat diet (60% fat, Research Diets). For cold exposure experiments, mice were group housed and placed at 4° C. for the indicated times. For the preparation of C18:1-Phe for in vivo injections, compounds were dissolved in 18:1:1 v/v/v saline:Kolliphor® EL (Sigma Aldrich):DMSO and sonicated until homogeneous. Mice were administered compounds at 5 μl/g body weight at the indicated doses. For all injection experiments, mice were mock injected with saline daily for 3 days prior to the start of the experiments. For glucose tolerance tests (GTTs), mice received their final dose of compound the day prior to the assay and were then fasted overnight. Glucose was administered at 1.5 g/kg.
(§4) Energy expenditure, O2 consumption, CO2 production, respiratory exchange ratio, total locomotor activity, and food intake measurements were made with a 16-cage Columbus Instruments Oxymax Comprehensive Lab Animal Monitoring System (CLAMS) at ambient room temperature (21-23° C.). Mice were acclimated for one day in metabolic cages prior to data collection. Whole-body composition was assessed with an EchoMRI™ 3-in-1 on conscious mice.

[2] = tested on: Diet induced obese (DIO) mice; assay: Indirect calorimetry (CLAMS) of high fat diet/DIO mice treated with N-acyl amino acids; type: in vivo, mouse
Procedure: as §3, §4

U2OS cells = assay: Cellular oxygen consumption rate (uncoupled respiration), U2OS cells; type: cell-based, human; details: 50 μM, after oligomycin 1 μM
Procedure: as §1, §2

[3] = tested on: primary inguinal fat cells, primary BAT cells, C2C12 cells, and U2OS cells; assay: Uncoupled respiration cellular assays (variety of cell types); type: cell-based; details: N-acyl amino acids at 10-100 uM
Procedure: as §2

[4] = tested on: differentiated primary iWAT cells; assay: Cellular oxygen consumption rate (Seahorse XF24), differentiated primary iWAT adipocytes; type: cell-based, mouse; details: 50 μM, in presence of oligomycin; control fatty acid
Procedure: as §1, §2

mouse PM20D1 = target: T1, mouse PM20D1 (Mus musculus, UniProt Q8C165); assay: In vitro PM20D1-catalyzed synthesis of N-acyl amino acids; type: biochemical; details: head group 100 μM; oleate or arachidonate 1.5 mM, C18:1-CoA 0.7 mM
T1 construct: Full-length mouse Pm20d1 cDNA (GE Dharmacon) was subcloned with an in-frame C-terminal 6× His and FLAG® tag; made in house; host or cells: 293A (HEK293A) cells stably infected with retrovirus
T1 sequence (Q8C165 25-503): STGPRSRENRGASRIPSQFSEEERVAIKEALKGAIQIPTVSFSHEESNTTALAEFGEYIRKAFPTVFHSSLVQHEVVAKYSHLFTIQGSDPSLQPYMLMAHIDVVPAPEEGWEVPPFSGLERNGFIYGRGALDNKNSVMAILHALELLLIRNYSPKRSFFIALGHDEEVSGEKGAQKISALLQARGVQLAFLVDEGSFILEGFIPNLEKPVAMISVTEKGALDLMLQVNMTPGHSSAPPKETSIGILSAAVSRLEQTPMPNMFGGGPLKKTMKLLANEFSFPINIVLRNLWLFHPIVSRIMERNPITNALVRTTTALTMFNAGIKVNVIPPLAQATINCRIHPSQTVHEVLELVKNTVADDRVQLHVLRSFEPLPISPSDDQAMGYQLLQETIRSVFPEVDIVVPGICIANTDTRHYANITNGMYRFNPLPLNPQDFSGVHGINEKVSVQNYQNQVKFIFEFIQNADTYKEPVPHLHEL
Procedure: The concentrated media was centrifuged to remove debris (600×g, 10 min, 4° C.) and the supernatant containing PM20D1-flag was decanted into a new tube. PM20D1-Flag was immunoaffinity purified overnight at 4° C. from the concentrated media using magnetic Flag-M2 beads (Sigma Aldrich). The beads were collected, washed three times in PBS, eluted with 3× Flag peptide ([…] in PBS, Sigma Aldrich), aliquoted, and stored at −80° C. For the purification of human PM20D1-flag, hPM20D1-flag plasmid (Origene) was transiently transfected into 293A cells. After two days, the media was changed, harvested 24 h later, concentrated, and purified exactly as described above.
In vitro PM20D1-catalyzed synthesis of N-acyl amino acids was measured by incubating purified PM20D1 protein with oleate (1.5 mM) and phenylalanine (0.1 mM) in PBS (to 100 μl final volume) at 37° C. for 1.5 hrs. In vitro PM20D1-catalyzed N-acyl amino acid hydrolysis was measured by incubating purified PM20D1 protein with the indicated N-acyl amino acid (0.1 mM) in PBS (to 100 μl final volume) at 37° C. for 1.5 hrs. Reactions were terminated by placing the vials at −80° C. and the products generated in vitro were analyzed by mass spectroscopy (MS).
Briefly, frozen serum (30 μl) for polar metabolomic analyses were extracted in 160 μl of 1:1 acetonitrile/methanol with inclusion of internal standard D3, ^15N-serine (1 nmol). Activity assays (100 μl) were extracted in 400 μl 1:1 acetonitrile/methanol. Following 30 s of thorough vortexing and 1 min of bath sonication, the polar metabolite fraction (supernatant) was isolated by centrifugation at 13,000×g for 10 min. Ten μl of this supernatant was analyzed by SRM-based targeted LC-MS/MS, or untargeted LC-MS.
For separation of polar metabolites, normal-phase chromatography was performed with a […] column (50 mm×4.60 mm, Phenomenex). Mobile phases were as follows: Buffer A, acetonitrile; Buffer B, 95:5 water/acetonitrile with 0.1% formic acid or 0.2% ammonium hydroxide with 50 mM ammonium acetate for positive and negative ionization mode, respectively. The flow rate for each run started at 0.2 ml/min for 2 min, followed by a gradient starting at 0% B and increasing linearly to 100% B over the course of 15 min with a flow rate of 0.7 ml/min, followed by an isocratic gradient of 100% B for 10 min at 0.7 ml/min before equilibrating for 5 min at 0% B with a flow rate of 0.7 ml/min. MS analysis was performed with an electrospray ionization (ESI) source on an Agilent 6430 QQQ LC—MS/MS. The capillary voltage was set to 3.5 kV, and the fragmentor voltage was set to 100 V. The drying gas temperature was 325° C., the drying gas flow rate was 10 l/min, and the nebulizer pressure was 45 psi. For polar targeted and untargeted metabolomic analysis, representative metabolites were quantified by SRM of the transition from precursor to product ions (corresponding to amino acid fragment) at associated collision energies. Several representative fragmentation ions are as follows: C18:1-Ala, 352>88; C18:1-Gly, 338>74; C18:1-Phe, 428>164; C18:1-Leu/Ile, 394>130; C20:4-Phe, 450>164; C20:4-Leu/Ile, 416>130. Untargeted LC-MS was performed by scanning a mass range of m/z 50-1200, and data were exported as mzdata files and uploaded to XCMSOnline (xcmsserver.nutr.berkeley.edu) to identify metabolites that were differentially changed. For targeted metabolomics analysis, metabolites were quantified by integrating the area under the peak and were normalized to internal standard values corresponding to 1 nmol D3, ^15N-serine.

[5] = daily i.p.: C18:1-Leu 25, C18:1-Phe 30, C20:4-Gly 15 mg/kg/day

How did the “uncoupling activity (uncoupled respiration)” value (shortened to “uncoupling activity”) (C2C12 cells) turn out when `CCCCCCCC/C=C\CCCCCCCC(=O)N[C@@H](CC(C)C)C(=O)O` [C18:1-Leu, Oleoyl-L-leucine] was run?
Its value is “significantly more potent than the free fatty acid alone”.

What about the “reduction of food intake versus vehicle-treated mice” value ([1]; 25 mg/kg, i.p., daily) of the same compound?
The value was 17%.

What about the body weight lost ([1]; 25 mg/kg, i.p., daily) of the same compound?
Its body weight lost is 4.1 ± 0.3 g.

And the “body composition analysis (weight loss)” value ([1]; 25 mg/kg/day i.p., MRI)?
Its value is “entirely accounted for by a difference in fat mass”.

And the GTT ([1]; 25 mg/kg/day i.p., glucose 1.5 g/kg, versus vehicle- or oleate-treated mice)?
The GTT was “improvements”.

And the RER ([2]; C18:1-Leu 25 mg/kg/day i.p.)?
Its RER is “significantly lower”.

And the VCO2 ([2]; C18:1-Leu 25 mg/kg/day i.p.)?
Its VCO2 is “significantly augmented”.

And the “food intake over the final two days of the experiment” value ([2]; C18:1-Leu 25 mg/kg/day i.p., metabolic cages)?
The value was “reduced food intake”.

What about the VO2 [2, 5] of the same compound?
The VO2 was “significantly augmented”.

And the movement [2, 5]?
Its movement is “slightly reduced”.

Which results are given for `CCCCCCCCCCCCCCCCCCCC(=O)N[C@@H](Cc1ccccc1)C(=O)O` [N-arachidoyl phenylalanine, Icosanoyl-L-phenylalanine]?
uncoupling activity (uncoupled respiration) (U2OS cells): completely lacked uncoupling activity; uncoupled respiration in cells [3]: inactive

Which results are given for `CCCCCCCCCCCC(=O)N[C@@H](Cc1ccccc1)C(=O)O` [N-lauroyl phenylalanine, Dodecanoyl-L-phenylalanine]?
uncoupling activity (uncoupled respiration) (U2OS cells): completely lacked uncoupling activity; uncoupled respiration in cells [3]: inactive

For `CCCCCCCCCCCCCCCC(=O)N[C@@H](Cc1ccccc1)C(=O)O` [N-palmitoyl phenylalanine, Palmitoyl-L-phenylalanine], which “uncoupling activity” value (U2OS cells) is on record?
Its value is “possessed uncoupling activity”.

And the “uncoupled respiration in cells” value [3]?
Its value is “increased uncoupled respiration”.

`CCCCCCCCCCCCCCCCCC(=O)N[C@@H](Cc1ccccc1)C(=O)O` [N-stearoyl phenylalanine, Stearoyl-L-phenylalanine] was tested. Which “uncoupling activity” value (U2OS cells) did it give?
Its value is “possessed uncoupling activity”.

What about the “uncoupled respiration in cells” value [3] of the same compound?
The value was “increased uncoupled respiration”.

Which results are given for `CCCCC/C=C\C/C=C\C/C=C\C/C=C\CCCC(=O)O` [arachidonate, arachidonic acid, reference compound]?
oxygen consumption rate [4]: increased the oxygen consumption rate very modestly; substrate of the PM20D1 synthase reaction (mouse PM20D1): capable of using arachidonate as a fatty acid donor

For `CCCCCCCC/C=C\CCCCCCCC(=O)[O-].[Na+]` [oleate, sodium oleate, reference compound], which “uncoupled respiration in cells” value [3] is on record?
Its value is “inactive”.

And the “substrate of the PM20D1 synthase reaction” value (mouse PM20D1)?
The value was “strong preference for free oleate over oleoyl-coenzyme A”.

What about the body weight lost ([1]; 25 mg/kg, i.p., daily) of the same compound?
The body weight lost was 0.3 ± 0.2 g.
